The record followed here is US20200071310A1, “N-ARYL PYRAZOLES AS NRF2 REGULATORS” (GLAXOSMITHKLINE INTELLECTUAL PROPERTY DEVELOPMENT LIMITED, priority 2016, published 2020).

Each structure is given as a SMILES string.

As a reminder, the EC50 is the concentration at which the effect is half-maximal. A low value points to an effect from little substance.

The target in this test is T1, Keap1 (321-609) Kelch domain / TAMRA-labeled NRF2 peptide (ETGE motif) (Homo sapiens, UniProt Q14145).
T1 construct: the Kelch domain (321-609) of Keap1 is used
T1 sequence (Q14145 321-609): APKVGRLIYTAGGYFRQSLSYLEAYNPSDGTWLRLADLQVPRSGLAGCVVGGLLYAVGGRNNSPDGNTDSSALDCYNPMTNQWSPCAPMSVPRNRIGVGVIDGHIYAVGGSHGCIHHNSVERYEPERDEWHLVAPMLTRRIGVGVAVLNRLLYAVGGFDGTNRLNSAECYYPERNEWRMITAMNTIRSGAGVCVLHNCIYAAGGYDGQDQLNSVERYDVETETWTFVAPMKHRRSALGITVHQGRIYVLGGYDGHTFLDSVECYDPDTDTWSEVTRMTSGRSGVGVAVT
Kind of test: NRF2-Keap1 FP Assay. It counts as binding. As to conditions: Keap1 (321-609) 20 nM, Tamra labeled peptide 8 nM. The text has this:
One model for the NRF2-Keap1 interaction is through two binding sites in the Neh2 domain on NRF2. The two sites are referred to as the DLG binding motif (latch domain, uM affinity) and the ETGE binding motif (hinge domain, nM affinity). The Keap1 protein consists of an N-terminal region (NTR), a broad complex, tramtrack, and brick a' brac domain (BTB), an intervening region (IVR), a double glycine repeat domain (DGR or Kelch), and a C-terminal region. The DLG and ETGE motifs of NRF2's Neh2 domain bind to the Kelch domain of Keap1 at different affinities. In the Keap1 Kelch fluorescence polarization (FP) assay, a TAMRA-labeled 16mer peptide (AFFAQLQLDEETGEFL) containing the ETGE motif of NRF2 and the Kelch domain (321-609) of Keap1 is used. The assay determines if a compound interferes with the binding between Keap1 […] and the TAMRA-labeled peptide. Binding of TAMRA-labeled NRF2 peptide to Keap1 (321-609) results in a high FP signal. If a compound interferes with the binding between the peptide and the protein, it will cause the assay signal to decrease. Thus, assay signal is inversely proportional to binding inhibition.
100 nl of 100× compound dose response curves (serial 3-fold dilutions) in DMSO were stamped using an Echo liquid handling system (Labcyte) into 384-well low volume black assay plates (Greiner, #784076), with DMSO in columns 6 and 18. The top concentration of compound was located in columns 1 and 13. Keap1 (321-609) was diluted to 40 nM (2×) in 1× assay buffer (50 mM Tris, pH 8.0, 100 mM NaCl, 5 mM MgCl2, 1 mM DTT, 2 mM CHAPS, and 0.005% BSA) and 5 ul was added using a Multidrop Combi (Thermo Electron Corporation) equipped with a metal tip dispenser to all wells of the compound plate, except column 18. Column 18 received only 5 ul of assay buffer. Immediately, 5 uL of 16 nM (2×) of Tamra labeled peptide (AFFAQLQLDEETGEFL, 21st Century Biochemicals) was added to all wells of the plate. The plates were spun at 500 rpm for 1 min, incubated for 1 hr at room temperature, and read on an Analyst GT (Molecular Devices) equipped with excitation (530/25 nm) and emission (580/10 nm) filters designed for Tamra probes. A 561 nm dichroic mirror was also used in the Analyst. The final assay concentrations of Keap1l (321-609) and Tamra labeled peptide were 20 nM and 8 nM, respectively. Fluorescence measurements, represented as mP, were used in the transformation of the data. Compound activity was calculated based on percent inhibition, normalized against controls in the assay (Control 1 contains the Tamra peptide and Keap1 (321-609) together (0% response) and control 2 contains the Tamra peptide alone (100% response)). Data analysis was handled using the software package Abase XE (Surrey, United Kingdom. The % inhibition values were calculated by the equation:
100−(100*((compound response−average control 2)/(average control 1−average control2))).
For calculation of pIC50s, Abase XE used a four parameter equation.
IC50s<1 nM (+++++), IC50s 1 nM-10 nM (++++), IC50s 10-100 nM (+++), IC50s 100 nM-1 μM (++), IC50s 1-10 μM (+), IC50s>10 μM (−), or were not determined (ND).
`Cn1cc([C@@H]2C[C@H]2c2c(C(=O)O)cnn2-c2cccc(CN3CC(C)(C)Oc4ccc(F)cc4S3(=O)=O)c2)nn1` (racemic) [Example 5]: the EC50 fell in the range of 1 to 10 nM. To `Cn1cc([C@@H]2C[C@H]2c2c(C(=O)O)cnn2-c2cccc(CN3Cc4ccccc4CC(C)(C)C3)c2)nn1` (racemic) [Example 7] belongs 10 to 100 nM; to `Cn1cc([C@@H]2C[C@H]2c2c(C(=O)O)cnn2-c2cccc(CN3Cc4ccccc4OC(C)(C)C3)c2)nn1` (racemic) [Example 8], 10 to 100 nM.

`Cn1cc([C@@H]2C[C@H]2c2c(C(=O)O)cnn2-c2cccc(CN3Cc4ncccc4OC(C)(C)C3)c2)nn1` (racemic) [Example 9] displayed an EC50 of 10 to 100 nM. Turning to `Cn1cc([C@@H]2C[C@H]2c2c(C(=O)O)cnn2-c2cccc(CN3Cc4cc(Br)ccc4OC(C)(C)C3)c2)nn1` (racemic) [Example 13], the EC50 was 1 to 10 nM. With `CC[C@@H]1CN(Cc2cccc(-n3ncc(C(=O)O)c3[C@@H]3C[C@H]3c3cn(C)nn3)c2)Cc2ccccc2O1` (racemic) [Example 14], the EC50 lay within 100 to 1000 nM. `C[C@H]1Cc2ccc(C(F)(F)F)cc2S(=O)(=O)N(Cc2cccc(-n3ncc(C(=O)O)c3[C@@H]3C[C@H]3c3cn(C)nn3)c2)C1` (racemic) [Example 16, 1-(3-((4-methyl-1,1-dioxido-8-(trifluoromethyl)-4,5-dihydro-benzo[f][1,2]thiazepin-2(3H)-yl)methyl)phenyl)-5-((trans)-2-(1-methyl-1H-1,2,3-triazol-4-yl)cyclopropyl)-1H-pyrazole-4-carboxylic acid] gave an EC50 of 1 to 10 nM. Take `C[C@H]1Cc2ccc(Br)cc2S(=O)(=O)N(Cc2cccc(-n3ncc(C(=O)O)c3[C@@H]3C[C@H]3c3cn(C)nn3)c2)C1` (racemic) [Example 17, 1-(3-((8-bromo-4-methyl-1,1-dioxido-4,5-dihydrobenzo[f][1,2]thiazepin-2(3H)-yl)methyl)phenyl)-5-((trans)-2-(1-methyl-1H-1,2,3-triazol-4-yl)cyclopropyl)-1H-pyrazole-4-carboxylic acid]: the EC50 was 1 to 10 nM. Regarding `C[C@@H]1Cc2cc(C(F)(F)F)ccc2S(=O)(=O)N(Cc2cccc(-n3ncc(C(=O)O)c3[C@@H]3C[C@H]3c3cn(C)nn3)c2)C1` (racemic) [Example 18, 1-(3-((4-methyl-1,1-dioxido-7-(trifluoromethyl)-4,5-dihydro-benzo[f][1,2]thiazepin-2(3H)-yl)methyl)phenyl)-5-((trans)-2-(1-methyl-1H-1,2,3-triazol-4-yl)cyclopropyl)-1H-pyrazole-4-carboxylic acid], the EC50 was 1 to 10 nM. The compound `C[C@H]1Cc2cc(C(F)(F)F)ccc2S(=O)(=O)N(Cc2cccc(-n3ncc(C(=O)O)c3[C@@H]3C[C@H]3c3cn(C)nn3)c2)C1` (racemic) [Example 19, 1-(3-((4-methyl-1,1-dioxido-7-(trifluoromethyl)-4,5-dihydro-benzo[f][1,2]thiazepin-2(3H)-yl)methyl)phenyl)-5-((trans)-2-(1-methyl-1H-1,2,3-triazol-4-yl)cyclopropyl)-1H-pyrazole-4-carboxylic acid] gave an EC50 of 100 to 1000 nM.

As to `Cn1cc([C@@H]2C[C@H]2c2c(C(=O)O)cnn2-c2cccc(Cn3ccnc3CC3CCCCCC3)c2)nn1` (racemic) [Example 23], the EC50 fell in the range of 1 to 10 nM. `Cn1cc([C@@H]2C[C@H]2c2c(C(=O)O)cnn2-c2cccc(Cn3ccnc3CN3CCCCC3)c2)nn1` (racemic) [Example 24] registered an EC50 of 10 to 100 nM. Next, `CCCCCCN(Cc1cccc(-n2ncc(C(=O)O)c2[C@@H]2C[C@H]2c2cn(C)nn2)c1)S(=O)(=O)c1cccc(-c2ccccc2)c1` (racemic) [Example 34, 1-(3-((N-hexyl-[1,1′-biphenyl]-3-ylsulfonamido)methyl)phenyl)-5-((trans)-2-(1-methyl-1H-1,2,3-triazol-4-yl)cyclopropyl)-1H-pyrazole-4-carboxylic acid]: 1 to 10 nM; `CN(Cc1cccc(-n2ncc(C(=O)O)c2[C@@H]2C[C@H]2c2cn(C)nn2)c1)S(=O)(=O)c1cccc(Oc2ccccc2)c1` (racemic) [Example 35, 5-((trans)-2-(1-methyl-1H-1,2,3-triazol-4-yl)cyclo-propyl)-1-(3-((N-methyl-3-phenoxy-phenyl-sulfonamido)-methyl)phenyl)-1H-pyrazole-4-carboxylic acid]: 10 to 100 nM; `CCCCCCN(Cc1cccc(-n2ncc(C(=O)O)c2[C@@H]2C[C@H]2c2cn(C)nn2)c1)S(=O)(=O)c1ccccc1C` (racemic) [Example 37, 1-(3-((N-hexyl-2-methylphenylsulfonamido)methyl)phenyl)-5-((trans)-2-(1-methyl-1H-1,2,3-triazol-4-yl)cyclo-propyl)-1H-pyrazole-4-carboxylic acid]: 10 to 100 nM. `COc1ccc(Cl)cc1S(=O)(=O)N(C)Cc1cccc(-n2ncc(C(=O)O)c2[C@@H]2C[C@H]2c2cn(C)nn2)c1` (racemic) [Example 40, 1-(3-((5-chloro-2-methoxy-N-methylphenyl-sulfonamido)-methyl)phenyl)-5-((trans)-2-(1-methyl-1H-1,2,3-triazol-4-yl)cyclo-propyl)-1H-pyrazole-4-carboxylic acid] gave a concentration giving a half-maximal response (EC50) of 100 to 1000 nM. To `CN(Cc1cccc(-n2ncc(C(=O)O)c2[C@@H]2C[C@H]2c2cn(C)nn2)c1)S(=O)(=O)c1c(Cl)cccc1C(F)(F)F` (racemic) [Example 41, 1-(3-((2-chloro-N-methyl-6-(trifluoro-methyl)phenyl-sulfonamido)-methyl)phenyl)-5-((trans)-2-(1-methyl-1H-1,2,3-triazol-4-yl)cyclo-propyl)-1H-pyrazole-4-carboxylic acid] belongs 100 to 1000 nM; to `Cc1ccccc1S(=O)(=O)N(C)Cc1cccc(-n2ncc(C(=O)O)c2[C@@H]2C[C@H]2c2cn(C)nn2)c1` (racemic) [Example 42, 1-(3-((N,2-dimethylphenylsulfonamido)methyl)phenyl)-5-((trans)-2-(1-methyl-1H-1,2,3-triazol-4-yl)cyclopropyl)-1H-pyrazole-4-carboxylic acid], 100 to 1000 nM. As for `COc1ccc(Br)cc1S(=O)(=O)N(C)Cc1cccc(-n2ncc(C(=O)O)c2[C@@H]2C[C@H]2c2cn(C)nn2)c1` (racemic) [Example 43, 1-(3-((5-bromo-2-methoxy-N-methylphenylsulfonamido)methyl)phenyl)-5-((trans)-2-(1-methyl-1H-1,2,3-triazol-4-yl)cyclopropyl)-1H-pyrazole-4-carboxylic acid], the EC50 fell in the range of 100 to 1000 nM.

Turning to `COc1cc([N+](=O)[O-])ccc1S(=O)(=O)N(C)Cc1cccc(-n2ncc(C(=O)O)c2[C@@H]2C[C@H]2c2cn(C)nn2)c1` (racemic) [Example 44, 1-(3-((2-methoxy-N-methyl-4-nitrophenylsulfonamido)methyl)phenyl)-5-((trans)-2-(1-methyl-1H-1,2,3-triazol-4-yl)cyclopropyl)-1H-pyrazole-4-carboxylic acid], the EC50 lay in the range of 100 to 1000 nM. In the case of `CCOc1ccccc1S(=O)(=O)N(C)Cc1cccc(-n2ncc(C(=O)O)c2[C@@H]2C[C@H]2c2cn(C)nn2)c1` (racemic) [Example 45, 1-(3-((2-ethoxy-N-methylphenylsulfonamido)methyl)phenyl)-5-((trans)-2-(1-methyl-1H-1,2,3-triazol-4-yl)cyclopropyl)-1H-pyrazole-4-carboxylic acid], the EC50 fell in the range of 100 to 1000 nM. `CN(Cc1cccc(-n2ncc(C(=O)O)c2[C@@H]2C[C@H]2c2cn(C)nn2)c1)S(=O)(=O)c1ccccc1OC(F)(F)F` (racemic) [Example 46, 5-((trans)-2-(1-methyl-1H-1,2,3-triazol-4-yl)cyclopropyl)-1-(3-((N-methyl-2-(trifluoromethoxy)phenylsulfonamido)methyl)phenyl)-1H-pyrazole-4-carboxylic acid] gave an EC50 of 100 to 1000 nM.
